Among the data in publication PMC5587797 (Nucleic Acids Research, 2017) are Kd values, retold here.

For assay [1], the target named is hTRMT10A (Homo sapiens, UniProt Q8TBZ6, D210N). In words: biochemical.
Assay [2] concerns the target hTRMT10A (Homo sapiens, UniProt Q8TBZ6). In words: biochemical.

Sequence of hTRMT10A (Homo sapiens, UniProt Q8TBZ6, D210N) (Q8TBZ6 whole entry D210N): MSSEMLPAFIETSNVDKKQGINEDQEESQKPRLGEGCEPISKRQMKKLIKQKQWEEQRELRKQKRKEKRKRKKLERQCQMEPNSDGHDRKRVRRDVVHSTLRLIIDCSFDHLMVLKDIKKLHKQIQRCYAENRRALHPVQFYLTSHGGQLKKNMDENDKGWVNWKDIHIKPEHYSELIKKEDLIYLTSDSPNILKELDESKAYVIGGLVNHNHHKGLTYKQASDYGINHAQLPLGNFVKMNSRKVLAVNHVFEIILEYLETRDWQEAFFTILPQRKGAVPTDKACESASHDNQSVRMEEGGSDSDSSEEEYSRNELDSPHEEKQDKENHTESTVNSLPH
Sequence of hTRMT10A (Homo sapiens, UniProt Q8TBZ6) (Q8TBZ6 whole entry): as the sequence (Q8TBZ6 whole entry D210N) above, with N210D counted along it

On to `C[S+](CC[C@H](N)C(=O)O)C[C@H]1O[C@@H](n2cnc3c(N)ncnc32)[C@H](O)[C@@H]1O` (some centres unmarked) [S-adenosyl methionine], for which the Kd was determined as 60.6 ± 10.3 µM at hTRMT10A [1] and 17.7 ± 4 µM at hTRMT10A [2].
